What was measured:
[1] = system: neointima formation; details: intraluminal exposure of a denuded rat carotid artery; cited from earlier work
[2] = target: cdk2/cyclin E (Homo sapiens, UniProt P24941); experiment: Assay for inhibition of cdk2 (cdk2/cyclin E), 32P filter plate; type: biochemical; details: retinoblastoma protein substrate, read-out: CYCK2E IC50
Method: (§1) Assay for Inhibition of cdk1 and cdk2
(§2) Cdk1 and cdk2 enzyme assays for IC50 determinations and kinetic evaluation were performed as follows. 96-well filter plates (Millipore MADVN6550) were used. The total volume of each well in the assay was 0.1 mL in Buffer A (20 mM TRIS (pH 7.4), 50 mM NaCl, 1 mM dithiothreitol, 10 mM MgCl2), to which was added […] containing 0.25 μCi [^32P]ATP, 20 ng enzyme (cdk2/cyclin E, cdk2/cyclin A, or cdk1/cyclin B), 1 μg retinoblastoma protein, and appropriate dilutions in Buffer A of the particular test compound. Buffer A alone without added test compound was employed as a control for no inhibition. Buffer A containing excess EDTA was used to determine the level of background ^32P in the absence of enzyme activity. All components except the ATP were added to the wells, and the plate was placed on a plate mixer for 2 minutes. The reaction was initiated by addition of [^32P]ATP, and the plate was incubated at 25° C. for 15 minutes. The reaction was terminated by addition of 0.1 mL 20% TCA. The plate was kept at 4° C. for at least 1 hour to allow the substrate to precipitate. The wells were then washed five times with 0.2 mL 10% TCA, and ^32P incorporation was determined with a beta plate counter (Wallac Inc., Gaithersburg, Md.). The IC50 of the test compound was determined using the median effect method (Chou, T-C and Talalay, P. Applications of the median effect principle for the assessment of low-dose risk of carcinogens and for the quantitation of synergism and antagonism of chemotherapeutic agents. In: New Avenues in Developmental Cancer Chemotherapy (Eds. Harrap, K. T. and Connors, T. A.), pp. 37–64. Academic Press, New York, 1987).

[3] = target: cdk2/cyclin A (Homo sapiens, UniProt P24941); experiment: Assay for inhibition of cdk2 (cdk2/cyclin A), 32P filter plate; type: biochemical; details: retinoblastoma protein substrate, read-out: CYCK2A IC50
Method: as §1, §2

[4] = target: T1, mouse PDGF-β receptor tyrosine kinase (Mus musculus, UniProt P05622); experiment: PDGF receptor (PDGFr) tyrosine kinase assay; type: biochemical; details: PDGFr enzyme lysate, Poly (4:1) glutamate-tyrosine substrate
T1 construct: amplify a fragment of DNA that codes for the intracellular tyrosine kinase domain; made in house; host or cells: SF9 insect cells (baculovirus); crude cell lysate used
Excerpt: (§3) For PDGF receptor (PDGFr) and FGF receptor (FGFr) tyrosine kinase assays, full-length cDNAs for the mouse PDGF-β and human FGF1(flg) receptor tyrosine kinases were obtained from J. Escobedo and prepared as described previously (Escobedo et al., J. Biol. Chem., 1988;262:1482–1487). PCR primers were designed to amplify a fragment of DNA that codes for the intracellular tyrosine kinase domain. The fragment was inserted into a baculovirus vector, cotransfected with AcMNPV DNA, and the recombinant virus was isolated. SF9 insect cells are infected with the virus to overexpress the protein, and the cell lysate was used for the assay.
(§4) PDGFr and FGFr enzyme assays were performed in 96-well plates (100 μL/incubation/well), and conditions were optimized to measure the incorporation of ^32P from [γ^32P]ATP into a glutamate-tyrosine co-polymer substrate. Briefly, to each well was added 82.5 μL incubation buffer containing 25 mM Hepes (pH 7.0), 150 mM NaCl, 0.1% Triton X-100, 0.2 mM PMSF, 0.2 mM Na3VO4, 10 mM MnCl2, and 750 μg/mL Poly (4:1) glutamate-tyrosine followed by 2.5 μL inhibitor and 5 μL enzyme lysate (7.5 μg/μL FGFr or 6.0 μg/μL PDGFr) to initiate the reaction. Following a 10-minute incubation at 25° C., […] [γ^32P]ATP (0.4 μCi plus 50 μM ATP) was added to each well, and samples were incubated for an additional 10 minutes at 25° C. The reaction was terminated by the addition of 100 μL 30% trichloroacetic acid (TCA) containing 20 mM sodium pyrophosphate and precipitation of material onto glass fiber mats (Wallac). Filters were washed three times with 15% TCA containing 100 mM sodium pyrophosphate, and the radioactivity retained on the filters was counted in a Wallac 1250 Betaplate reader. Nonspecific activity was defined as radioactivity retained on the filters following incubation of samples with buffer alone (no enzyme). Specific enzymatic activity (enzyme plus buffer) was defined as total activity minus nonspecific activity. The concentration of a compound that inhibited specific activity by 50% (IC50) was determined based on the inhibition curve.

[5] = target: cdk4/Cyclin D (Homo sapiens, UniProt P11802); experiment: Assay for inhibition of cdk4/Cyclin D, 32P filter plate; type: biochemical; details: for IC50: cdk4, 25 μM ATP, retinoblastoma protein substrate, read-out: CYCK4 IC50
Method: Assay for Inhibition of cdk4/Cyclin D
The cdk4 enzyme assay for IC50 determination and kinetic evaluation was performed as follows: 96-well filter plates (Millipore MADVN6550) were used. The total volume was 0.1 mL containing a final concentration of buffer A (20 mM TRIS (tris[hydroxymethyl]aminomethane) (pH 7.4), 50 mM NaCl, 1 mM dithiothreitol, 10 mM MgCl2), 25 μM ATP containing 0.25 μCi [^32P]ATP, 20 ng Cdk4, 1 μg retinoblastoma protein, and the test compound at appropriate dilutions in buffer A. Buffer A alone without added test compound was employed as a control for no inhibition. Buffer A containing excess EDTA was used to determine the level of background ^32P in the absence of enzyme activity. All components except the ATP were added to the wells, and the plate was placed on a plate mixer for 2 minutes. The reaction was started by adding [^32P]ATP, and the plate was incubated at 25° C. for 15 minutes. The reaction was terminated by addition of 0.1 mL 20% trichloroacetic acid (TCA). The plate was kept at 4° C. for at least 1 hour to allow the substrate to precipitate. The wells were then washed five times with 0.2 mL 10% TCA, and ^32P incorporation was determined with a beta plate counter (Wallac Inc., Gaithersburg, Md.).

[6] = target: cdk1/cyclin B (Homo sapiens, UniProt P06493); experiment: Assay for inhibition of cdk1 (cdk1/cyclin B), 32P filter plate; type: biochemical; details: retinoblastoma protein substrate, read-out: CYCK1B IC50
Method: as §1, §2

[7] = target: T2, human FGF1(flg) receptor tyrosine kinase (Homo sapiens, UniProt P11362); experiment: FGF receptor (FGFr) tyrosine kinase assay; type: biochemical; details: FGFr enzyme lysate, Poly (4:1) glutamate-tyrosine substrate
T2 construct: amplify a fragment of DNA that codes for the intracellular tyrosine kinase domain; made in house; host or cells: SF9 insect cells (baculovirus); crude cell lysate used
Excerpt: as §3, §4

[8] = system: herpes simplex virus (HSV); details: related art (Schang et al.); cited from earlier work

T2 sequence (P11362 478-767 limits assumed): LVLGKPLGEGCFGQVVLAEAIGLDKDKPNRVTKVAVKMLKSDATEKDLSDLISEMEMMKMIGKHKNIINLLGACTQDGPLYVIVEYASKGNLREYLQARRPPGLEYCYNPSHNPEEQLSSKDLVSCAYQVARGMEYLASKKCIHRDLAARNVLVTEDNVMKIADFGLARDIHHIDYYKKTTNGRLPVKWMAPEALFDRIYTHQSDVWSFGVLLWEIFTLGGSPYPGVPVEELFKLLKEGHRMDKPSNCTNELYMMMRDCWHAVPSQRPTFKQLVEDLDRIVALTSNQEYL
cdk4/Cyclin D, sequence (P11802 whole entry, species assumed): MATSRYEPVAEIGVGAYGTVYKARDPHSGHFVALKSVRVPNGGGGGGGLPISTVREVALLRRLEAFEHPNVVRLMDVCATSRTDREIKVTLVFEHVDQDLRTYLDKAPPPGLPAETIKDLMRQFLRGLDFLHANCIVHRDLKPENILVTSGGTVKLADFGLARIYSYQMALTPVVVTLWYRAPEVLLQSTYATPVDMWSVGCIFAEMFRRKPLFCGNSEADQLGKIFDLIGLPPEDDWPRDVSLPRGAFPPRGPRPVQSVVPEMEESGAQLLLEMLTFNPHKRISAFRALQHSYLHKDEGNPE
cdk4/Cyclin D, sequence (P24385 whole entry partner, species assumed): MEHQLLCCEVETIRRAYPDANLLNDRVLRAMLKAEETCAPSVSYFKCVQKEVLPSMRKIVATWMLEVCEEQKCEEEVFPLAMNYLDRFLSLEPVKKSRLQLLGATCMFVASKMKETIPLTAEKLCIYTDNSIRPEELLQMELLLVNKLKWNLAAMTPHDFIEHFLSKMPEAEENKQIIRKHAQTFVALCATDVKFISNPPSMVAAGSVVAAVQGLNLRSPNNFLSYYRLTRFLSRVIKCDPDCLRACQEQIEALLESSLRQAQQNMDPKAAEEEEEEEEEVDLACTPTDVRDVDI
T1 sequence (P05622 599-961 limits assumed): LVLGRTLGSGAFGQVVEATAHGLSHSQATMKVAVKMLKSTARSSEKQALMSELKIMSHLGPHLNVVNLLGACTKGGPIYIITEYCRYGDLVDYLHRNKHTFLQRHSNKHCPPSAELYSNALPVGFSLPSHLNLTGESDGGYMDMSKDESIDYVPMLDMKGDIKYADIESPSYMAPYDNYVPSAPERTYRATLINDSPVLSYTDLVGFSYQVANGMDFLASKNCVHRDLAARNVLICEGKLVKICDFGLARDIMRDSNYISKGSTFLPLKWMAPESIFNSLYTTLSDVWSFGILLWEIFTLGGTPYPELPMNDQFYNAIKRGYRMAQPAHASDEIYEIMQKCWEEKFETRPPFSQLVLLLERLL
cdk1/cyclin B, sequence (P06493 whole entry, species assumed): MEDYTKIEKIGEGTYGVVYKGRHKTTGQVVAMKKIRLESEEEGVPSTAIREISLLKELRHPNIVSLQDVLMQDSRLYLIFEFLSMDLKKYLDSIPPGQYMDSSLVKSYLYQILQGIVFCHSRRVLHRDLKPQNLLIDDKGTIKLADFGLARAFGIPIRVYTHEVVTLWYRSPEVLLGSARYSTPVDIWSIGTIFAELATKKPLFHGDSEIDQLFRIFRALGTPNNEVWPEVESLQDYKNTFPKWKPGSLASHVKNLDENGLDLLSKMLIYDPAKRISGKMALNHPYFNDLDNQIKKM
cdk1/cyclin B, sequence (P14635 whole entry partner, species assumed): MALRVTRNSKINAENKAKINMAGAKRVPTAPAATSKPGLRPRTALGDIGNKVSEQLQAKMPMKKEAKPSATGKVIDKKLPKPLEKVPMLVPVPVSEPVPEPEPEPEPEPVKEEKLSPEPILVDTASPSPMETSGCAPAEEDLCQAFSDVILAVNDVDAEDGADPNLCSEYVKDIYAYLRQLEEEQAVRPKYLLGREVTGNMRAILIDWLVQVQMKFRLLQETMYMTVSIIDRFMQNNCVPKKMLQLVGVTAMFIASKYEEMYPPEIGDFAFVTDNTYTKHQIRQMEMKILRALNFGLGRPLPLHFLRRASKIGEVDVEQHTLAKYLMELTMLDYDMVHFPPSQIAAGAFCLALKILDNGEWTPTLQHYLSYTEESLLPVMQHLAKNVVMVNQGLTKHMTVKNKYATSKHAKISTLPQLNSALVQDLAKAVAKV

Compound	IC50 [2] [nM]	IC50 [3] [nM]	IC50 [4] [nM]	IC50 [5] [nM]	selectivity for Cdk4 over cdk1, cdk2, FGF and PDGF ([5]; conclusion from Table 2)	IC50 [6] [nM]	IC50 [7] [nM]	inhibition of neointima formation [1]	HSV replication [8]
COc1ccc(CNc2nc(N(CCO)CCO)nc3c2ncn3C(C)C)cc1 [CVT-313]								greater than 80%	
CCC1=Cc2cnc(Nc3ccc(N4CCNCC4)cc3)nc2N(C2CCCC2)S1(=O)=O [Compound 14, (1-Cyclopentyl-3-ethyl-2,2-dioxo-1,2-dihydro-2l^6-thia-1,6,8-triaza-naphthalen-7-yl)-(4-piperazin-1-yl-phenyl)-amine]	> 5000	4000	216	50			1030		
O=S1(=O)CCc2cnc(Nc3ccc(N4CCNCC4)cc3)nc2N1C1CCCC1 [Compound 16, (1-Cyclopentyl-2,2-dioxo-1,2,3,4-tetrahydro-2l^6-thia-1,6,8-triaza-naphthalen-7-yl)-(4-piperazin-1-yl-phenyl)-amine]	930	930		45		4140			
CC[C@H](CO)Nc1nc(NCc2ccccc2)c2ncn(C(C)C)c2n1 [roscovitine]									inhibited

More lines, main results first:

IC50 [2] [nM]	IC50 [3] [nM]	IC50 [4] [nM]	IC50 [5] [nM]	selectivity for Cdk4 over cdk1, cdk2, FGF and PDGF ([5]; conclusion from Table 2)	IC50 [6] [nM]	IC50 [7] [nM]	Compound	inhibition of neointima formation [1]	HSV replication [8]
145	106	1070	5	specifically inhibits Cdk4	360	179	O=S1(=O)C=Cc2cnc(Nc3ccc(N4CCNCC4)cc3)nc2N1C1CCCC1 [Compound 4, (1-Cyclopentyl-2,2-dioxo-1,2-dihydro-2l^6-thia-1,6,8-triaza-naphthalen-7-yl)-(4-piperazin-1-yl-phenyl)-amine]		
600	294		1.3		3600		CC1(C)CN(c2ccc(Nc3ncc4c(n3)N(C3CCCC3)S(=O)(=O)C=C4)cc2)CCN1 [Compound 6, (1-Cyclopentyl-2,2-dioxo-1,2-dihydro-2l^6-thia-1,6,8-triaza-naphthalen-7-yl)-[4-(3,3-dimethyl-piperazin-1-yl)-phenyl]-amine]		
26000	5450	290	93		36000	575	CC1=Cc2cnc(Nc3ccc(N4CCNCC4)cc3)nc2N(C2CCCC2)S1(=O)=O [Compound 10, (1-Cyclopentyl-3-methyl-2,2-dioxo-1,2-dihydro-2l^6-thia-1,6,8-triaza-naphthalen-7-yl)-(4-piperazin-1-yl-phenyl)-amine]		

— patent US7026313B2, “2-thia-1,6,8-triaza-naphthalene-2,2-dioxides are kinase inhibitors” (Warner-Lambert Company, priority 2002, dated 2006)
